Like-named read-outs stand apart in the source and are kept apart here. Positions of bridges follow the written chain, without caps; N, C: chain ends. Non-standard residues stand in square brackets, D forms with d. Residues, ends and D or L forms follow the SMILES beside them. ξ: configuration not given here. Pro(4,4-F2) = O=C(O)[C@@H]1CC(F)(F)CN1; Bta = N[C@@H](Cc1csc2ccccc12)C(=O)O; ξPro(4R-OH) = O=C(O)C1C[C@@H](O)CN1; Hyp = O=C(O)[C@@H]1C[C@@H](O)CN1; NMeE = CN[C@@H](CCC(=O)O)C(=O)O; NMeD = CN[C@@H](CC(=O)O)C(=O)O; dNMeNle = CCCC[C@@H](NC)C(=O)O; NMeNle = CCCC[C@H](NC)C(=O)O; Pip = O=C(O)[C@@H]1CCCCN1; NMeA = CN[C@@H](C)C(=O)O; Orn = NCCC[C@H](N)C(=O)O; dDap = NC[C@@H](N)C(=O)O; Dab = NCC[C@H](N)C(=O)O; Dap = NC[C@H](N)C(=O)O; ξP = O=C(O)C1CCCN1
Tests used:
Human PD-L1/PD-1 = biological target: T1, Human PD-L1/PD-1 (Homo sapiens, UniProt Q9NZQ7); assay: HTRF PD-1-Ig/PD-L1-His binding assay (human PD-L1)
T1 construct: made in house; host or cells: HEK293T
T1 sequence (Q9NZQ7 with tags, fused parts or gaps): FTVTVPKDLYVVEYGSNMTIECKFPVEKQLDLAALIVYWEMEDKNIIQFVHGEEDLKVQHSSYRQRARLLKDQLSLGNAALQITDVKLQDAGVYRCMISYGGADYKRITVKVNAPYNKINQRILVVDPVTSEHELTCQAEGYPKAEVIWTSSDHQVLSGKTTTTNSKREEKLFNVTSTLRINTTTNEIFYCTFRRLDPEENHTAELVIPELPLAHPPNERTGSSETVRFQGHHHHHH
In short: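 Steps: truncated PD-1-Ig and PD-L1-His fusions are incubated in dPBS containing 0.1% (w/v) BSA and 0.05% (v/v) Tween-20. Detection antibodies are then added (Eu cryptate anti-Ig at 1 nM final, APC anti-His at 20 nM final), and time-resolved FRET is measured.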

[1] = biological target: T2, LK35.2-hPD-L1 cells / PE-labeled PD-1-Ig (Homo sapiens, UniProt Q9NZQ7); assay: LK35.2-hPD-L1 cell binding high-content screening assay; assay type: cell-based; details: cell line of CBA not given (LK35.2-hPD-L1 or 293T-hPD-L1)
T2 construct: expressed in transfected cells; host or cells: LK35.2 mouse B cell line
T2 sequence (Q9NZQ7 19-290): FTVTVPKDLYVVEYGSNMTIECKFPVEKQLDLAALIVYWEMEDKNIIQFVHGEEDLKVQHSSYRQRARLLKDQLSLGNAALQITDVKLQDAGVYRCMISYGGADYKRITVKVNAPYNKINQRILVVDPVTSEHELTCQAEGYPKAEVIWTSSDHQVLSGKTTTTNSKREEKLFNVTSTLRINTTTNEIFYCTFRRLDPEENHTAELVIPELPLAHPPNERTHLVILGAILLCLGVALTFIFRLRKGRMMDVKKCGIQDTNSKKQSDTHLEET
In short: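 Readout: high-content imaging of PE-PD-1-Ig bound to LK35.2-hPD-L1 cells. Cells plated overnight (RPMI/10% FCS); compound + 1 nM PE-PD-1-Ig, 1 h, 37 °C; 3× dPBS wash before imaging.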

[2] = cluster symbol, read-out: HTRF IC50 cluster
[3] = cluster symbol, read-out: CBA IC50 cluster

| IC50 (Human PD-L1/PD-1; [2]) [nM] | IC50 [1, 3] [nM] | IC50 (Human PD-L1/PD-1; read-out: HTRF IC50 value) [nM] | IC50 ([1]; read-out: CBA IC50 value) [nM] | Compound |
| --- | --- | --- | --- | --- |
| 6.76 to 30.3 | 4.78 to 72.9 |  |  | CCCC[C@H]1C(=O)N(C)[C@@H](CCCC)C(=O)N[C@@H](CCCN)C(=O)N[C@H](C(=O)NCC(N)=O)CSCC(=O)N[C@@H](Cc2ccc(O)cc2)C(=O)N2C[C@@H](N)C[C@H]2C(=O)N[C@@H](CC(N)=O)C(=O)N2CCC[C@H]2C(=O)N[C@@H](Cc2cnc[nH]2)C(=O)N[C@@H](CC(C)C)C(=O)N2C[C@H](O)C[C@H]2C(=O)N[C@@H](Cc2c[nH]c3ccccc23)C(=O)N[C@@H](CO)C(=O)N[C@@H](Cc2c[nH]c3ccccc23)C(=O)N1C [Example 1188] |
| > 30.5 | > 74.3 |  |  | CCCC[C@H]1C(=O)N(C)[C@@H](CCCC)C(=O)N[C@@H](CCCNC(=N)N)C(=O)N[C@H](C(=O)NCC(N)=O)CSCC(=O)N[C@@H](Cc2ccc(O)cc2)C(=O)N(C)[C@@H](CCC(=O)O)C(=O)N[C@@H](CC(N)=O)C(=O)N2CCC[C@H]2C(=O)N[C@@H](Cc2cnc[nH]2)C(=O)N[C@@H](CC(C)C)C(=O)N(C)CC(=O)N[C@@H](Cc2c[nH]c3ccccc23)C(=O)N[C@@H](CO)C(=O)N[C@@H](Cc2c[nH]c3ccccc23)C(=O)N1C [Example 1189] |
| > 30.5 | > 74.3 |  |  | CCCC[C@H]1C(=O)N(C)[C@@H](CCCC)C(=O)N[C@@H](CCCNC(=N)N)C(=O)N[C@H](C(=O)NCC(N)=O)CSCC(=O)N[C@@H](Cc2ccc(O)cc2)C(=O)N(C)[C@@H](CC(=O)O)C(=O)N[C@@H](CC(N)=O)C(=O)N2CCC[C@H]2C(=O)N[C@@H](Cc2cnc[nH]2)C(=O)N[C@@H](CC(C)C)C(=O)N2CCC[C@H]2C(=O)N[C@@H](Cc2c[nH]c3ccccc23)C(=O)N[C@@H](CO)C(=O)N[C@@H](Cc2csc3ccccc23)C(=O)N1C [Example 1190] ({CH2CO}-Y[NMeD]NPHLPWS[Bta][NMeNle][NMeNle]RCG-NH2; thioether N-14) |
| > 30.5 | > 74.3 |  |  | CCCC[C@H]1C(=O)N(C)[C@@H](CCCC)C(=O)N[C@@H](CCCNC(=N)N)C(=O)N[C@H](C(=O)NCC(N)=O)CSCC(=O)N[C@@H](Cc2ccc(O)cc2)C(=O)N(C)[C@@H](CCC(=O)O)C(=O)N[C@@H](CC(N)=O)C(=O)N2CCC[C@H]2C(=O)N[C@@H](Cc2cnc[nH]2)C(=O)N[C@@H](CC(C)C)C(=O)N2CCC[C@H]2C(=O)N[C@@H](Cc2c[nH]c3ccccc23)C(=O)N[C@@H](CO)C(=O)N[C@@H](Cc2csc3ccccc23)C(=O)N1C [Example 1191] ({CH2CO}-Y[NMeE]NPHLPWS[Bta][NMeNle][NMeNle]RCG-NH2; thioether N-14) |
|  |  | 6.74 | 21.5 | CCCC[C@H]1C(=O)N(C)[C@@H](CCCC)C(=O)N[C@@H](CCCN)C(=O)N[C@H](C(=O)NCC(N)=O)CSCC(=O)N[C@@H](Cc2ccc(O)cc2)C(=O)N2C[C@H](N)C[C@H]2C(=O)N[C@@H](CC(N)=O)C(=O)N2CCC[C@H]2C(=O)N[C@@H](Cc2cnc[nH]2)C(=O)N[C@@H](CC(C)C)C(=O)N2C[C@H](O)C[C@H]2C(=O)N[C@@H](Cc2c[nH]c3ccccc23)C(=O)N[C@@H](CO)C(=O)N[C@@H](Cc2c[nH]c3ccccc23)C(=O)N1C [Example 1192] |
| 0.385 to 6.74 | 0.158 to 4.71 |  |  | CCCC[C@H]1C(=O)N(C)[C@@H](CCCC)C(=O)N[C@@H](CCCN)C(=O)N[C@H](C(=O)NCC(N)=O)CSCC(=O)N[C@@H](Cc2ccc(O)cc2)C(=O)N2CCC[C@H]2C(=O)N[C@@H](CC(=O)O)C(=O)N2CCC[C@H]2C(=O)N[C@@H](CN)C(=O)N[C@@H](CCC(=O)O)C(=O)N2C[C@H](O)C[C@H]2C(=O)N[C@@H](Cc2c[nH]c3ccccc23)C(=O)N[C@@H](CCN)C(=O)N[C@@H](Cc2csc3ccccc23)C(=O)N1C [Example 1193] ({CH2CO}-YPDP[Dap]E[Hyp]W[Dab][Bta][NMeNle][NMeNle][Orn]CG-NH2; thioether N-14) |
| 0.385 to 6.74 | 0.158 to 4.71 |  |  | CCCC[C@H]1C(=O)N(C)[C@@H](CCCC)C(=O)N[C@@H](CCCN)C(=O)N[C@H](C(=O)NCC(N)=O)CSCC(=O)N[C@@H](Cc2ccc(O)cc2)C(=O)N(C)[C@@H](C)C(=O)N[C@@H](CC(N)=O)C(=O)N2CCC[C@H]2C(=O)N[C@@H](CN)C(=O)N[C@@H](CC(C)C)C(=O)N2C[C@H](O)C[C@H]2C(=O)N[C@@H](Cc2c[nH]c3ccccc23)C(=O)N[C@@H](CCN)C(=O)N[C@@H](Cc2csc3ccccc23)C(=O)N1C [Example 1194] ({CH2CO}-Y[NMeA]NP[Dap]L[Hyp]W[Dab][Bta][NMeNle][NMeNle][Orn]CG-NH2; thioether N-14) |
| 0.385 to 6.74 | 0.158 to 4.71 |  |  | CCCC[C@H]1C(=O)N(C)[C@@H](CCCC)C(=O)N[C@@H](CCCN)C(=O)N[C@H](C(=O)NCC(N)=O)CSCC(=O)N[C@@H](Cc2ccc(O)cc2)C(=O)N(C)[C@@H](C)C(=O)N[C@@H](CC(N)=O)C(=O)N2CCC[C@H]2C(=O)N[C@@H](CN)C(=O)N[C@@H](CCC(N)=O)C(=O)N2C[C@H](O)C[C@H]2C(=O)N[C@@H](Cc2c[nH]c3ccccc23)C(=O)N[C@@H](CCN)C(=O)N[C@@H](Cc2csc3ccccc23)C(=O)N1C [Example 1195] ({CH2CO}-Y[NMeA]NP[Dap]Q[Hyp]W[Dab][Bta][NMeNle][NMeNle][Orn]CG-NH2; thioether N-14) |
| > 30.5 | 4.78 to 72.9 |  |  | CCCC[C@H]1C(=O)N(C)[C@@H](CCCC)C(=O)N[C@@H](CCCNC(=N)N)C(=O)N[C@H](C(=O)NCC(N)=O)CSCC(=O)N[C@@H](Cc2ccccc2)C(=O)N(C)[C@@H](C)C(=O)N[C@@H](CC(N)=O)C(=O)N2CCC[C@H]2C(=O)N[C@@H](Cc2cnc[nH]2)C(=O)N[C@@H](CC(C)C)C(=O)N2CCCC[C@H]2C(=O)N[C@@H](Cc2c[nH]c3ccccc23)C(=O)N[C@@H](CO)C(=O)N[C@@H](Cc2c[nH]c3ccccc23)C(=O)N1C [Example 1196] ({CH2CO}-F[NMeA]NPHL[Pip]WSW[NMeNle][NMeNle]RCG-NH2; thioether N-14) |
| 6.76 to 30.3 | 4.78 to 72.9 |  |  | CCCC[C@H]1C(=O)N(C)[C@@H](CCCC)C(=O)N[C@@H](CCCNC(=N)N)C(=O)N[C@H](C(=O)NCC(N)=O)CSCC(=O)N[C@@H](Cc2ccccc2)C(=O)N(C)[C@@H](C)C(=O)N[C@@H](CC(N)=O)C(=O)N2CCC[C@H]2C(=O)N[C@@H](Cc2cnc[nH]2)C(=O)N[C@@H](CC(C)C)C(=O)N2CC(F)(F)C[C@H]2C(=O)N[C@@H](Cc2c[nH]c3ccccc23)C(=O)N[C@@H](CO)C(=O)N[C@@H](Cc2c[nH]c3ccccc23)C(=O)N1C [Example 1197] ({CH2CO}-F[NMeA]NPHL[Pro(4,4-F2)]WSW[NMeNle][NMeNle]RCG-NH2; thioether N-14) |
| 6.76 to 30.3 | 4.78 to 72.9 |  |  | CCCC[C@H]1C(=O)N(C)[C@@H](CCCC)C(=O)N[C@@H](CC(=O)O)C(=O)N[C@H](C(=O)NCC(N)=O)CSCC(=O)N[C@@H](Cc2ccc(O)cc2)C(=O)N(C)[C@@H](C)C(=O)N[C@@H](CC(=O)O)C(=O)N2CCC[C@H]2C(=O)N[C@@H](Cc2c[nH]cn2)C(=O)N[C@@H](CCCNC(=N)N)C(=O)N2CCCC2C(=O)N[C@@H](Cc2c[nH]c3ccccc23)C(=O)N[C@@H](CCCNC(=N)N)C(=O)N[C@@H](Cc2c[nH]c3ccccc23)C(=O)N1C (stereo partly drawn) [Example 1201] ({CH2CO}-Y[NMeA]DPHR[ξP]WRW[NMeNle][NMeNle]DCG-NH2; thioether N-14) |
| 0.385 to 6.74 | 0.158 to 4.71 |  |  | CCCC[C@H]1C(=O)N(C)[C@@H](CCCC)C(=O)N[C@@H](C)C(=O)N[C@H](C(=O)NCC(N)=O)CSCC(=O)N[C@@H](Cc2ccc(O)cc2)C(=O)N(C)[C@@H](C)C(=O)N[C@@H](CC(=O)O)C(=O)N2CCC[C@H]2C(=O)N[C@@H](Cc2c[nH]cn2)C(=O)N[C@@H](CCCCN)C(=O)N2C[C@H](O)CC2C(=O)N[C@@H](Cc2c[nH]c3ccccc23)C(=O)N[C@@H](CO)C(=O)N[C@@H](Cc2c[nH]c3ccccc23)C(=O)N1C (stereo partly drawn) [Example 1202] ({CH2CO}-Y[NMeA]DPHK[ξPro(4R-OH)]WSW[NMeNle][NMeNle]ACG-NH2; thioether N-14) |
| 6.76 to 30.3 | 0.158 to 4.71 |  |  | CCCC[C@H]1C(=O)N(C)[C@@H](CCCC)C(=O)N[C@@H](CC(=O)O)C(=O)N[C@H](C(=O)NCC(N)=O)CSCC(=O)N[C@@H](Cc2ccc(O)cc2)C(=O)N(C)[C@@H](C)C(=O)N[C@@H](CC(=O)O)C(=O)N2CCC[C@H]2C(=O)N[C@@H](Cc2c[nH]cn2)C(=O)N[C@@H](CCCNC(=N)N)C(=O)N2C[C@H](O)CC2C(=O)N[C@@H](Cc2c[nH]c3ccccc23)C(=O)N[C@@H](CCCNC(=N)N)C(=O)N[C@@H](Cc2c[nH]c3ccccc23)C(=O)N1C (stereo partly drawn) [Example 1203] ({CH2CO}-Y[NMeA]DPHR[ξPro(4R-OH)]WRW[NMeNle][NMeNle]DCG-NH2; thioether N-14) |
| 0.385 to 6.74 | 4.78 to 72.9 |  |  | CCCC[C@@H]1C(=O)N(C)[C@H](CCCC)C(=O)N[C@@H](C)C(=O)N[C@@H](C(=O)NCC(N)=O)CSCC(=O)N[C@@H](Cc2ccc(O)cc2)C(=O)N2CCCC2C(=O)N[C@H](CC(=O)O)C(=O)N2CCC[C@H]2C(=O)N[C@H](CN)C(=O)N[C@@H](CCC(N)=O)C(=O)N2CCCC2C(=O)N[C@H](Cc2c[nH]c3ccccc23)C(=O)N[C@@H](CCN)C(=O)N[C@@H](Cc2c[nH]c3ccccc23)C(=O)N1C (stereo partly drawn) [Example 1208] ({CH2CO}-Y[ξP][dD]P[dDap]Q[ξP][dW][Dab]W[dNMeNle][dNMeNle]A[dC]G-NH2; thioether N-14) |
| 6.76 to 30.3 | 4.78 to 72.9 |  |  | CCCC[C@@H]1C(=O)N(C)[C@H](CCCC)C(=O)N[C@@H](C)C(=O)N[C@@H](C(=O)NCC(N)=O)CSCC(=O)N[C@@H](Cc2ccc(O)cc2)C(=O)N2CCCC2C(=O)N[C@H](CC(=O)O)C(=O)N2CCC[C@H]2C(=O)N[C@H](CN)C(=O)N[C@@H](CCC(=O)O)C(=O)N2CCCC2C(=O)N[C@H](Cc2c[nH]c3ccccc23)C(=O)N[C@@H](CCN)C(=O)N[C@@H](Cc2c[nH]c3ccccc23)C(=O)N1C (stereo partly drawn) [Example 1209] ({CH2CO}-Y[ξP][dD]P[dDap]E[ξP][dW][Dab]W[dNMeNle][dNMeNle]A[dC]G-NH2; thioether N-14) |

From patent publication US9850283B2, “Macrocyclic inhibitors of the PD-1/PD-L1 and CD80(B7-1)/PD-L1 protein/protein interactions” (BRISTOL-MYERS SQUIBB COMPANY, priority 2013, dated 2017)
